Legend:
[1] = exposed to oxidizing agents in the environment; cited from earlier work
[2] = Chemical stability of methyl farnesoate (oxidation, heat during drying); assay type: physicochemical; details: exposure to temperatures above about 50 degrees Celsius during drying
Source text: Recent scientific studies have shown that the hormone methyl farnesoate [methyl-(2E,6E,10E)-3,7,11-trimethyldodecatri-2,6,10-eneoate] […] Because methyl farnesoate oxidizes quickly and therefore will not build up large concentrations in the soil, and because it is a fatty acid, it is not considered to be harmful to the environment or adversely affect crop production. However, it is for these same reasons that administration of methyl farnesoate is difficult to administer.
In some further embodiments, the particles once formed can be dried to have a moisture content of, for example, about 5% and about 18%. Drying the particles assist in the efficient packaging, distribution, and dispensing of the particles. During such drying, the particles should not be exposed to extreme heat, which could reduce methyl farnesoate concentrations. […] Thus, in some embodiments, the pellets may be dried at a temperature below about 50 degrees Celsius. In some embodiments, relatively lower temperature drying can be enhanced by circulating ambient air over the particles.

tadpole shrimp [3] = details: cited from earlier work
tadpole shrimp [4] = test: Inhibition of sexual development in tadpole shrimp in laboratory conditions; assay type: in vivo, Triops longicaudatus
Source text: As above, the dry base, the viscous additive, and the saline solution form the means for delivering the methyl farnesoate. In some embodiments, the composition may include a preparation comprising an effective amount of methyl farnesoate. In some embodiments, the composition can include a minimum of about 0.0001% methyl farnesoate by weight. In some embodiments, the composition can include a maximum of about 0.001% methyl farnesoate by weight. It has been determined that a concentration of as little as about 0.75 micrograms of methyl farnesoate per gram of the final composition is effective for inhibiting sexual development in tadpole shrimp in laboratory conditions. […] Thus, in some embodiments, compositions containing at least about […] micrograms of methyl farnesoate per gram of the final composition may be used to reduce sexual development in tadpole shrimp. However, it is to be appreciated that the percentage of methyl farnesoate by weight may be greater or less than these amounts in accordance with some embodiments of the present invention.

COC(=O)/C=C(\C)CC/C=C(\C)CCC=C(C)C [methyl farnesoate, methyl-(2E,6E,10E)-3,7,11-trimethyldodecatri-2,6,10-eneoate]
oxidative stability [1]: easily oxidized into farnesoic acid | loss of methyl farnesoate concentration from the pellets on heating [2]: significant loss | effect on growth, development and gamete production in pests such as tadpole shrimp (tadpole shrimp [3]; recent scientific studies): inhibits growth, development, and gamete production | effect on sexual development of tadpole shrimp (tadpole shrimp [3]; studies): reduces sexual development | concentration of methyl farnesoate effective for inhibiting sexual development in tadpole shrimp (tadpole shrimp [4]): about 0.75 micrograms of methyl farnesoate per gram of the final composition
